Data reported in patent publication US4231928A, “Antibacterial agents” (priority 1979, dated 1980).
Like-named read-outs stand apart in the source and are kept apart here.

Columns and labels:
[1] = system: S. aureus; assay: Serial twofold agar dilution (Mueller-Hinton agar), S. aureus; format: cell-based; details: Staphylococcus aureus
Protocol: (§1) The Minimum Inhibitory Concentrations (MIC) for sodium 6-[D-(-)-α-phenyl-α-(7-hydroxy-4-oxo-4H-pyrimido[1,2-b]pyridazin-3-ylcarboxamido)acetamido]penicillanate (BB-P598) and sulbenicillin were determined by the serial twofold agar dilution method using Steers' apparatus on Mueller-Hinton agar plates against 31 test organisms for the primary screening (Table 1) and also against 61 strains of Pseudomonas aeruginosa for the secondary evaluation (Table 2).
(§2) Minimum Inhibitory Concentrations (MIC) for sodium 6-[D-(-)-α-phenyl-α-(7-hydroxy-4-oxo-4H-pyrimido[1,2-b]pyridazin-3-ylcarboxamido)acetamido]pencillanate (BB-P598), sodium 6-[D-(-)-α-(4-hydroxyphenyl)-α-(7-hydroxy-4-oxo-4H-pyrimido[1,2-b]pyridazin-3-ylcarboxamido)acetamido]-penicillanate (BB-P642) and carbenicillin were determined by the serial twofold agar dilution method using Steers' apparatus on Mueller-Hinton agar plates against 31 tests organisms (Table 8) and also against 61 strains of Pseudomonas aeruginosa (Table 9). In terms of mean % relative activity compared with carbenicillin, compounds BB-B598 and BB-P642 were 856% and 1319% as active as carbenicillin against the 61 Pseudomonas strains of Table 9.

[2] = system: E. coli; assay: Serial twofold agar dilution (Mueller-Hinton agar), E. coli; format: cell-based; details: Escherichia coli
Protocol: as §1, §2

[3] = system: K. pneumoniae; assay: Serial twofold agar dilution (Mueller-Hinton agar), K. pneumoniae; format: cell-based; details: Klebsiella pneumoniae, K. pneumoniae A9977, Table 8, read-out: MIC
Protocol: as §1, §2

[4] = system: Klebsiella sp.; assay: Serial twofold agar dilution (Mueller-Hinton agar), Klebsiella sp.; format: cell-based; details: Klebsiella sp. A20452, Mueller-Hinton agar, Table 8, read-out: MIC
Protocol: as §1, §2

[5] = system: E. cloacae; assay: Serial twofold agar dilution (Mueller-Hinton agar), E. cloacae; format: cell-based; details: Enterobacter cloacae
Protocol: as §1, §2

[6] = system: P. mirabilis; assay: Serial twofold agar dilution (Mueller-Hinton agar), P. mirabilis; format: cell-based; details: Proteus mirabilis
Protocol: as §1, §2

[7] = system: P. vulgaris; assay: Serial twofold agar dilution (Mueller-Hinton agar), P. vulgaris; format: cell-based; details: Proteus vulgaris, P. vulgaris A9539, Table 8, read-out: MIC
Protocol: as §1, §2

[8] = system: P. morganii; assay: Serial twofold agar dilution (Mueller-Hinton agar), P. morganii; format: cell-based; details: Morganella morganii, P. morganii A9553, Table 8, read-out: MIC
Protocol: as §1, §2

[9] = system: S. enteritidis; assay: Serial twofold agar dilution (Mueller-Hinton agar), S. enteritidis; format: cell-based; details: Salmonella enterica, S. enteritidis A9531, Table 8, read-out: MIC
Protocol: as §1, §2

[10] = system: S. marcescens; assay: Serial twofold agar dilution (Mueller-Hinton agar), S. marcescens; format: cell-based; details: Serratia marcescens, S. marcescens A20019, Table 8
Protocol: as §1, §2

[11] = system: Pseudomonas aeruginosa; assay: Serial twofold agar dilution (Mueller-Hinton agar), P. aeruginosa; format: cell-based; details: for MIC: Pseudomonas aeruginosa
Protocol: as §1, §2

[12] = system: Pseudomonas sp.; assay: Serial twofold agar dilution (Mueller-Hinton agar), Pseudomonas sp.; format: cell-based; details: Pseudomonas sp. A20358, Table 8, read-out: MIC
Protocol: as §1, §2

[13] = Mouse blood levels after subcutaneous administration; details: in vivo, sc, 20 mg/kg
Protocol: Mouse blood levels of BB-[…] and BB-[…] were determined by subcutaneous administration of 20 mg/kg of the penicillin to groups of three mice. Blood samples collected from orbital sinuses were assayed by the paper disk agar-diffusion method on Sarcina lutea PC1 1001 plates.

SMILES: CC1(C)S[C@@H]2[C@H](NC(=O)[C@H](NC(=O)c3cnc4ccc(O)nn4c3=O)c3ccc(O)cc3)C(=O)N2[C@H]1C(=O)O [BB-P642, Sodium 6-[D-(-)-α-(4-hydroxyphenyl)-α-(7-hydroxy-4-oxo-4H-pyrimido[1,2-b]pyridazin-3-ylcarboxamido)acetamido]-penicillanate]
- MIC ([1]; S. aureus A15097, Table 8, read-out: MIC): > 100 µg/mL
- MIC ([1]; S. aureus A20239, Table 8, read-out: MIC): 25 µg/mL
- MIC ([1]; S. aureus A20240, Table 8, read-out: MIC): 12.5 µg/mL
- MIC ([1]; S. aureus A20701, Table 8, read-out: MIC): > 100 µg/mL
- MIC ([1]; S. aureus BX-1633 A9606, Table 8, read-out: MIC): 25 µg/mL
- MIC ([1]; S. aureus Smith A9537, Table 8, read-out: MIC): 3.1 µg/mL
- MIC ([2]; E. coli A9635, Table 8, read-out: MIC): 12.5 µg/mL
- MIC ([2]; E. coli A9844, Table 8, read-out: MIC): 3.1 µg/mL
- MIC ([2]; E. coli A20366, Table 8, read-out: MIC): > 100 µg/mL
- MIC ([2]; E. coli A20520, Table 8, read-out: MIC): 6.3 µg/mL
- MIC ([2]; E. coli A20664, Table 8, read-out: MIC): 1.6 µg/mL
- MIC ([2]; E. coli A20732, Table 8, read-out: MIC): 100 µg/mL
- MIC ([2]; E. coli A20898, Table 8, read-out: MIC): > 100 µg/mL
- MIC ([2]; E. coli Juhl A15119, Table 8, read-out: MIC): 6.3 µg/mL
- MIC ([2]; E. coli NIHJ, Table 8, read-out: MIC): 3.1 µg/mL
- MIC [3]: 6.3 µg/mL
- MIC [4]: 12.5 µg/mL
- MIC ([5]; E. cloacae A9656, Table 8): 25 µg/mL
- MIC ([5]; E. cloacae A9657, Table 8): 100 µg/mL
- MIC ([5]; E. cloacae A9659, Table 8): 25 µg/mL
- MIC [6]: 3.1 µg/mL
- MIC [7]: 50 µg/mL
- MIC [8]: > 100 µg/mL
- MIC [9]: 3.1 µg/mL
- MIC [10]: > 100 µg/mL
- Mean % relative activity compared with carbenicillin ([11]; 61 strains of P. aeruginosa, Table 9): 1319%
- MIC ([11]; 61 strains of P. aeruginosa, Table 9, read-out: Geometric mean of MIC): 2.27 µg/mL
- MIC ([11]; A20229, Mueller-Hinton agar, Table 8, read-out: MIC): 0.4 µg/mL
- MIC ([11]; ATCC19660, Pa-14 ATCC 19660 A20325, Mueller-Hinton agar, Table 9, read-out: MIC): 1.6 µg/mL
- MIC ([11]; GN315, Pa-27 GN315 A21294, Mueller-Hinton agar, Table 9, read-out: MIC): 0.8 µg/mL
- MIC ([11]; GN4925, Pa-45 GN 4925, Mueller-Hinton agar, Table 9, read-out: MIC): 3.1 µg/mL
- MIC ([11]; P. aeruginosa A9843, Mueller-Hinton agar, Table 8, read-out: MIC): 1.6 µg/mL
- MIC ([11]; P. aeruginosa A9930, Mueller-Hinton agar, Table 8, read-out: MIC): 1.6 µg/mL
- MIC ([11]; P. aeruginosa A15150, Mueller-Hinton agar, Table 8, read-out: MIC): 0.8 µg/mL
- MIC ([11]; P. aeruginosa A20717, Mueller-Hinton agar, Table 8, read-out: MIC): 3.1 µg/mL
- MIC ([11]; Pa-2 V.A A9923, Mueller-Hinton agar, Table 9, read-out: MIC): 1.6 µg/mL
- MIC ([11]; Pa-3 1449 V.A A9930, Mueller-Hinton agar, Table 9, read-out: MIC): 1.6 µg/mL
- MIC ([11]; Pa-4 H9, D113 A21295, Mueller-Hinton agar, Table 9, read-out: MIC): 3.1 µg/mL
- MIC ([11]; Pa-5 M4865, K.C A15150, Mueller-Hinton agar, Table 9, read-out: MIC): 1.6 µg/mL
- MIC ([11]; Pa-6 No. 5 Levitan A15194, Mueller-Hinton agar, Table 9, read-out: MIC): 12.5 µg/mL
- MIC ([11]; Pa-10 A21479, Mueller-Hinton agar, Table 9, read-out: MIC): > 100 µg/mL
- MIC ([11]; Pa-11 A20616, Mueller-Hinton agar, Table 9, read-out: MIC): 1.6 µg/mL
- MIC ([11]; Pa-12 A20653, Mueller-Hinton agar, Table 9, read-out: MIC): 1.6 µg/mL
- MIC ([11]; Pa-15 A20717, Mueller-Hinton agar, Table 9, read-out: MIC): 6.3 µg/mL
- MIC ([11]; Pa-16 #130 A20718, Mueller-Hinton agar, Table 9, read-out: MIC): 0.4 µg/mL
- MIC ([11]; Pa-17 H6, D114, Mueller-Hinton agar, Table 9, read-out: MIC): 3.1 µg/mL
- MIC ([11]; Pa-18 H8, D121, Mueller-Hinton agar, Table 9, read-out: MIC): 0.4 µg/mL
- MIC ([11]; Pa-19 A20229, Mueller-Hinton agar, Table 9, read-out: MIC): 0.8 µg/mL
- MIC ([11]; Pa-20 A20325, Mueller-Hinton agar, Table 9, read-out: MIC): 1.6 µg/mL
- MIC ([11]; Pa-21 A20601, Mueller-Hinton agar, Table 9, read-out: MIC): 1.6 µg/mL
- MIC ([11]; Pa-23 A20741, Mueller-Hinton agar, Table 9, read-out: MIC): 1.6 µg/mL
- MIC ([11]; Pa-24 A20896, Mueller-Hinton agar, Table 9, read-out: MIC): > 100 µg/mL
- MIC ([11]; Pa-25 A20897, Mueller-Hinton agar, Table 9, read-out: MIC): 1.6 µg/mL
- MIC ([11]; Pa-26 PS32, Mueller-Hinton agar, Table 9, read-out: MIC): 12.5 µg/mL
- MIC ([11]; Pa-28 C.P.H. 10527/72, Mueller-Hinton agar, Table 9, read-out: MIC): 1.6 µg/mL
- MIC ([11]; Pa-29 D122, Mueller-Hinton agar, Table 9, read-out: MIC): 1.6 µg/mL
- MIC ([11]; Pa-30 A20600, Mueller-Hinton agar, Table 9, read-out: MIC): 1.6 µg/mL
- MIC ([11]; Pa-31 A20594, Mueller-Hinton agar, Table 9, read-out: MIC): 0.4 µg/mL
- MIC ([11]; Pa-32 A20595, Mueller-Hinton agar, Table 9, read-out: MIC): 1.6 µg/mL
- MIC ([11]; Pa-33 A20598, Mueller-Hinton agar, Table 9, read-out: MIC): 0.8 µg/mL
- MIC ([11]; Pa-34 A20603, Mueller-Hinton agar, Table 9, read-out: MIC): 0.8 µg/mL
- MIC ([11]; Pa-36, Mueller-Hinton agar, Table 9, read-out: MIC): 0.8 µg/mL
- MIC ([11]; Pa-37 A20130, Mueller-Hinton agar, Table 9, read-out: MIC): 1.6 µg/mL
- MIC ([11]; Pa-38 A20349, Mueller-Hinton agar, Table 9, read-out: MIC): 6.3 µg/mL
- MIC ([11]; Pa-39 A20641, Mueller-Hinton agar, Table 9, read-out: MIC): 0.8 µg/mL
- MIC ([11]; Pa-41 A21227, Mueller-Hinton agar, Table 9, read-out: MIC): 1.6 µg/mL
- MIC ([11]; Pa-42 A21229, Mueller-Hinton agar, Table 9, read-out: MIC): 12.5 µg/mL
- MIC ([11]; Pa-43 A21233, Mueller-Hinton agar, Table 9, read-out: MIC): 1.6 µg/mL
- MIC ([11]; Pa-44 A21274, Mueller-Hinton agar, Table 9, read-out: MIC): 1.6 µg/mL
- MIC ([11]; Pa-51 A9910, Mueller-Hinton agar, Table 9, read-out: MIC): 1.6 µg/mL
- MIC ([11]; Pa-52 A9926, Mueller-Hinton agar, Table 9, read-out: MIC): 3.1 µg/mL
- MIC ([11]; Pa-53 A20126, Mueller-Hinton agar, Table 9, read-out: MIC): 1.6 µg/mL
- MIC ([11]; Pa-54 A20128, Mueller-Hinton agar, Table 9, read-out: MIC): 3.1 µg/mL
- MIC ([11]; Pa-55 A20227, Mueller-Hinton agar, Table 9, read-out: MIC): 3.1 µg/mL
- MIC ([11]; Pa-56 A20228, Mueller-Hinton agar, Table 9, read-out: MIC): 1.6 µg/mL
- MIC ([11]; Pa-57 A20546, Mueller-Hinton agar, Table 9, read-out: MIC): 1.6 µg/mL
- MIC ([11]; Pa-58 A20557, Mueller-Hinton agar, Table 9, read-out: MIC): 3.1 µg/mL
- MIC ([11]; Pa-59 A20574, Mueller-Hinton agar, Table 9, read-out: MIC): 0.8 µg/mL
- MIC ([11]; Pa-60 A20602, Mueller-Hinton agar, Table 9, read-out: MIC): 1.6 µg/mL
- MIC ([11]; Pa-61 A20726, Mueller-Hinton agar, Table 9, read-out: MIC): 3.1 µg/mL
- MIC ([11]; Pa-62 A21213, Mueller-Hinton agar, Table 9, read-out: MIC): > 100 µg/mL
- MIC ([11]; Pa-64 A21336, Mueller-Hinton agar, Table 9, read-out: MIC): 0.8 µg/mL
- MIC ([11]; Pa-65 A21428, Mueller-Hinton agar, Table 9, read-out: MIC): 1.6 µg/mL
- MIC ([11]; Pa-66 A21434, Mueller-Hinton agar, Table 9, read-out: MIC): 3.1 µg/mL
- MIC ([11]; Pa-67 A21509, Mueller-Hinton agar, Table 9, read-out: MIC): 3.1 µg/mL
- MIC ([11]; Pa-68 A21510, Mueller-Hinton agar, Table 9, read-out: MIC): 3.1 µg/mL
- MIC ([11]; Pa-69 A21587, Mueller-Hinton agar, Table 9, read-out: MIC): 3.1 µg/mL
- MIC ([11]; Pa-70 K-PS102 (KR-102), Mueller-Hinton agar, Table 9, read-out: MIC): 1.6 µg/mL
- MIC [12]: 0.4 µg/mL
- concentration at 0.25 h [13]: 18000 ng/mL
- concentration at 0.5 h [13]: 13500 ng/mL
- concentration at 1 h [13]: 5200 ng/mL
